According to PMC12209991 (Clinical Pharmacology in Drug Development, 2025):
Entries after “also recorded” stand apart in the source; their conditions may differ. Read-outs that look alike come from different tables or passages of the source.

Assays:
[1] = Multiple ascending dose (MAD) pharmacokinetics in healthy volunteers, BID for 14 days; type: in vivo, human; conditions: human, plasma, oral; for Tmax: read-out: Tmax, median [min-max]
Procedure: (§1) Analytes were separated by HPLC on a Waters Atlantis T3 analytical column using a gradient mobile phase (mobile phase A: 10% acetonitrile, 90% water, 10 mM ammonium acetate, 0.3% formic acid; mobile phase B: 90% acetonitrile, 10% water, 10 mM ammonium acetate, 0.3% formic acid) run at 0.4 mL/min with initial mobile phase B concentration of 30%.

[2] = Food effect (high-fat breakfast) on RBN-3143 pharmacokinetics, cross-over; type: in vivo, human; conditions: single 500 mg oral dose; for Tmax / AUC(0-inf) / AUC(0-t) / Cmax: human, plasma, po, 500 mg; for Tmax: read-out: Median Tmax
Procedure: as §1

[3] = Pantoprazole (PPI) effect on RBN-3143 pharmacokinetics, cross-over; type: in vivo, human; conditions: for AUC(0-inf) / AUC(0-t) / Cmax: human, plasma, po, single 500 mg oral dose
Procedure: as §1

[4] = molecular target: CYP3A4 (Homo sapiens, UniProt P08684); assay: In vitro metabolism; type: in vitro ADME; conditions: unpublished data
Chain of CYP3A4 (P08684 whole entry): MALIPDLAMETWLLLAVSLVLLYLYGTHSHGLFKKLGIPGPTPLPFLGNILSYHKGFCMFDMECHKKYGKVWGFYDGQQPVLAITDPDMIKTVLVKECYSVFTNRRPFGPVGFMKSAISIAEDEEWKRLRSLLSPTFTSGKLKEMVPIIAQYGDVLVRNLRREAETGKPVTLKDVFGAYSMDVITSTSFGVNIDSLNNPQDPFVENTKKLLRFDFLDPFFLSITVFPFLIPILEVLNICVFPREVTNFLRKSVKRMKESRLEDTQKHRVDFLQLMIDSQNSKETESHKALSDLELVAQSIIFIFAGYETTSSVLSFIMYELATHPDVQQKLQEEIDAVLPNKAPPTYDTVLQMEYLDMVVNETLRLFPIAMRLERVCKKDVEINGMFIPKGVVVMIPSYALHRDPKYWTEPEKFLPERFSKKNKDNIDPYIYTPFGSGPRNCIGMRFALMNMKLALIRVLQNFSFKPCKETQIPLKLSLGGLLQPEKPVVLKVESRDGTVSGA

AUC ([1]; 300 mg, 300 mg BID, Day 14, plasma, read-out: AUC12, geometric mean (Geo CV%)): 9.55 µg·h/mL
AUC ([1]; 300 mg, 300 mg BID, Day 14, plasma, read-out: AUC12, mean (SD)): 9.86 µg·h/mL
Cmax ([1]; 300 mg, 300 mg BID, Day 14, plasma, read-out: Cmax, geometric mean (Geo CV%)): 1.42 µg/mL
Cmax ([1]; 300 mg, 300 mg BID, Day 14, plasma, read-out: Cmax, mean (SD)): 1.47 µg/mL
Tmax ([1]; 300 mg, 300 mg BID, Day 14, plasma): 2 h
AUC ([1]; 500 mg, 500 mg BID, Day 1, plasma, read-out: AUC12, geometric mean (Geo CV%)): 8.04 µg·h/mL
AUC ([1]; 500 mg, 500 mg BID, Day 1, plasma, read-out: AUC12, mean (SD)): 8.34 µg·h/mL
Cmax ([1]; 500 mg, 500 mg BID, Day 1, plasma, read-out: Cmax, geometric mean (Geo CV%)): 1.27 µg/mL
Cmax ([1]; 500 mg, 500 mg BID, Day 1, plasma, read-out: Cmax, mean (SD)): 1.32 µg/mL
Tmax ([1]; 500 mg, 500 mg BID, Day 1, plasma): 2.52 h
half-life ([1]; 500 mg, 500 mg BID, Day 1, plasma, read-out: t1/2, geometric mean (Geo CV%) (converted)): 4.38 h
half-life ([1]; 500 mg, 500 mg BID, Day 1, plasma, read-out: t1/2, mean (SD) (converted)): 4.39 h
AUC ([1]; 500 mg, 500 mg BID, Day 14, plasma, read-out: AUC12, geometric mean (Geo CV%)): 12.4 µg·h/mL
AUC ([1]; 500 mg, 500 mg BID, Day 14, plasma, read-out: AUC12, mean (SD)): 12.6 µg·h/mL
Cmax ([1]; 500 mg, 500 mg BID, Day 14, plasma, read-out: Cmax, geometric mean (Geo CV%)): 1.83 µg/mL
Cmax ([1]; 500 mg, 500 mg BID, Day 14, plasma, read-out: Cmax, mean (SD)): 1.88 µg/mL
Tmax ([1]; 500 mg, 500 mg BID, Day 14, plasma): 1.5 h
Tmax ([2]; after a high-fat meal): 4 h
Tmax ([2]; fasted state): 2 h
AUC(0-inf) ([2]; fasted, N=13, linear mixed-effects model, read-out: AUCinf, GLSM): 13.3 µg·h/mL
AUC(0-t) ([2]; fasted, N=13, linear mixed-effects model, read-out: AUClast, GLSM): 12.9 µg·h/mL
Cmax ([2]; fasted, N=13, linear mixed-effects model, read-out: Cmax, GLSM): 1.55 µg/mL
AUC(0-inf) ([2]; fasted, N=13, read-out: AUCinf, geometric mean (Geo CV%)): 13.3 µg·h/mL
AUC(0-inf) ([2]; fasted, N=13, read-out: AUCinf, mean (SD)): 13.8 µg·h/mL
AUC(0-t) ([2]; fasted, N=13, read-out: AUClast, geometric mean (Geo CV%)): 12.8 µg·h/mL
AUC(0-t) ([2]; fasted, N=13, read-out: AUClast, mean (SD)): 13.3 µg·h/mL
Cmax ([2]; fasted, N=13, read-out: Cmax, geometric mean (Geo CV%)): 1.53 µg/mL
Cmax ([2]; fasted, N=13, read-out: Cmax, mean (SD)): 1.6 µg/mL
AUC(0-inf) ([2]; fed (high-fat breakfast), N=13, linear mixed-effects model, read-out: AUCinf, GLSM): 18.9 µg·h/mL
AUC(0-t) ([2]; fed (high-fat breakfast), N=13, linear mixed-effects model, read-out: AUClast, GLSM): 18.7 µg·h/mL
Cmax ([2]; fed (high-fat breakfast), N=13, linear mixed-effects model, read-out: Cmax, GLSM): 2.69 µg/mL
AUC(0-inf) ([2]; fed (high-fat breakfast), N=13, read-out: AUCinf, geometric mean (Geo CV%)): 18.8 µg·h/mL
AUC(0-inf) ([2]; fed (high-fat breakfast), N=13, read-out: AUCinf, mean (SD)): 19.6 µg·h/mL
AUC(0-t) ([2]; fed (high-fat breakfast), N=13, read-out: AUClast, geometric mean (Geo CV%)): 18.6 µg·h/mL
AUC(0-t) ([2]; fed (high-fat breakfast), N=13, read-out: AUClast, mean (SD)): 19.4 µg·h/mL
Cmax ([2]; fed (high-fat breakfast), N=13, read-out: Cmax, geometric mean (Geo CV%)): 2.66 µg/mL
Cmax ([2]; fed (high-fat breakfast), N=13, read-out: Cmax, mean (SD)): 2.78 µg/mL
delay of oral absorption with food [2]: about 2 hours
AUC(0-inf) ([3]; 500 mg, fasted without pantoprazole, N=12, linear mixed-effects model, read-out: AUCinf, GLSM): 13.3 µg·h/mL
AUC(0-t) ([3]; 500 mg, fasted without pantoprazole, N=12, linear mixed-effects model, read-out: AUClast, GLSM): 12.8 µg·h/mL
Cmax ([3]; 500 mg, fasted without pantoprazole, N=12, linear mixed-effects model, read-out: Cmax, GLSM): 1.53 µg/mL
AUC(0-inf) ([3]; 500 mg, fasted without pantoprazole, read-out: AUCinf, geometric mean (Geo CV%)): 13.3 µg·h/mL
AUC(0-inf) ([3]; 500 mg, fasted without pantoprazole, read-out: AUCinf, mean (SD)): 13.8 µg·h/mL
AUC(0-t) ([3]; 500 mg, fasted without pantoprazole, read-out: AUClast, geometric mean (Geo CV%)): 12.8 µg·h/mL
AUC(0-t) ([3]; 500 mg, fasted without pantoprazole, read-out: AUClast, mean (SD)): 13.3 µg·h/mL
Cmax ([3]; 500 mg, fasted without pantoprazole, read-out: Cmax, geometric mean (Geo CV%)): 1.53 µg/mL
Cmax ([3]; 500 mg, fasted without pantoprazole, read-out: Cmax, mean (SD)): 1.6 µg/mL
AUC(0-inf) ([3]; fasted with pantoprazole 40 mg QD, N=12, linear mixed-effects model, read-out: AUCinf, GLSM): 13.8 µg·h/mL
AUC(0-t) ([3]; fasted with pantoprazole 40 mg QD, N=12, linear mixed-effects model, read-out: AUClast, GLSM): 13.4 µg·h/mL
Cmax ([3]; fasted with pantoprazole 40 mg QD, N=12, linear mixed-effects model, read-out: Cmax, GLSM): 1.56 µg/mL
AUC(0-inf) ([3]; fasted with pantoprazole 40 mg QD, read-out: AUCinf, geometric mean (Geo CV%)): 13.3 µg·h/mL
AUC(0-inf) ([3]; fasted with pantoprazole 40 mg QD, read-out: AUCinf, mean (SD)): 13.7 µg·h/mL
AUC(0-t) ([3]; fasted with pantoprazole 40 mg QD, read-out: AUClast, geometric mean (Geo CV%)): 13 µg·h/mL
AUC(0-t) ([3]; fasted with pantoprazole 40 mg QD, read-out: AUClast, mean (SD)): 13.4 µg·h/mL
Cmax ([3]; fasted with pantoprazole 40 mg QD, read-out: Cmax, geometric mean (Geo CV%)): 1.54 µg/mL
Cmax ([3]; fasted with pantoprazole 40 mg QD, read-out: Cmax, mean (SD)): 1.58 µg/mL
Structure (SMILES): CC(=O)N1CCC(COc2cc(F)c3c(=O)[nH]c(CSC4CCOCC4)nc3c2)CC1 [RBN‐3143]
effect of pantoprazole on RBN-3143 exposure/PK ([3]; pantoprazole 40 mg QD pre-treatment, RBN-3143 500 mg): did not impact; also recorded: no effect; also recorded: did not alter; also recorded: unaffected
metabolizing enzyme [4]: predominantly metabolized by cytochrome P4503A4 (CYP3A4)
